Experimental data published in patent publication US20250235545A1, “POLYPEPTIDE CONJUGATE AND USE THEREOF” (SHANGHAI CHIXI BIOMEDICAL TECHNOLOGY CO., LTD, priority 2024, published 2025).
Converted amounts (≈) assume the structure as drawn. Read-outs that look alike come from different tables or passages of the source.

How the values were obtained:
A2780 (ovarian cancer) = test: cells; format: cell-based; settings: CCK8, 48 h; for IC50: Homo sapiens, A2780
Description: (§1) Different types of cells were cultured with complete media (RPMI1640 (DMEM high sugar medium)+10% fetal bovine serum+1XP/S+sodium pyruvate 1 mM solution) in an incubator at 37° C. and 5% CO2 until the cells grew to a sufficient number, and the cells were collected, centrifuged at 1,000 g for 5 min, resuspended with an appropriate volume of a 10% RMPI1640 (DMEM high sugar medium) medium and counted. In a 96-well culture plate, 100 μL of cell culture fluid containing different concentrations of drugs was added, control wells (0.1% DMSO) with only corresponding drug solvents without drugs, as well as blank wells (Blank) with only the medium but without cells were set, and three parallel wells were set in each group. After that, the cells after cell counting were inoculated onto 96-well culture plates, with 100 μL of cell suspension per well, and an inoculation concentration of the cells was 5,000 cells (100 μL)/well. The plates were then cultured in a CO2 (5%) incubator at 37° C. for 48 h. After 48 h, 10 μL of a cell proliferation staining reagent (CCK8) was added to each well, the plates were incubated in a cell incubator for around 2 h, and an absorbance at 450 nm was detected.
(§2) Cell survival rates and median inhibitory concentrations of the drugs on the cells were calculated.
as §1, with “serum+1×P/S+sodium” for “serum+1XP/S+sodium”, “adjusted to an appropriate density.” for “counted.”
(§3) Cell survival rates and median inhibitory concentrations (IC50) of the drugs on the cells were calculated.

[1] = test system: A549 (non-small cell lung cancer); test: cells; format: cell-based; settings: CCK8, 48 h; for IC50: Homo sapiens, A549
Description: as §1, §2
as §1, with “serum+1×P/S+sodium” for “serum+1XP/S+sodium”, “adjusted to an appropriate density.” for “counted.”
as §3

SJSA-1 (sarcoma tissue) = test: cells; format: cell-based; settings: CCK8, 48 h; for IC50: Homo sapiens, SJSA-1
Description: as §1, §2
as §1, with “serum+1×P/S+sodium” for “serum+1XP/S+sodium”, “adjusted to an appropriate density.” for “counted.”
as §3

[2] = test system: SKBR3 (breast cancer tissue); test: cells; format: cell-based; settings: CCK8, 48 h; for IC50: Homo sapiens, SK-BR-3
Description: as §1, §2
as §1, with “serum+1×P/S+sodium” for “serum+1XP/S+sodium”, “adjusted to an appropriate density.” for “counted.”
as §3

[3] = test system: colo320 (colorectal cancer tissue); test: cells; format: cell-based; settings: CCK8, 48 h, Table 6
Description: as §1, with “serum+1×P/S+sodium” for “serum+1XP/S+sodium”, “adjusted to an appropriate density.” for “counted.”
as §3

[4] = test system: sarcoma SJSA-1 tumor model; settings: 5 mg/kg once a week for three weeks
Description: Test objective: To investigate the antitumor efficacy of the above compounds in an animal tumor model of sarcoma SJSA-1.
(§4) Test drug: Polypeptide conjugate, Irinotecan, Belotecan and normal saline control group.
(§5) Test animals: 6-8 weeks old BALB/c mice, all female.
(§6) SJSA-1 cells were purchased from ATCC and cultured in a DMEM medium containing 10% fetal bovine serum at 37° C. in 5% CO2. Passaging was performed every three days, and cells within 15 generations were used. 2×10^7 corresponding cells were injected into right chests of nude mice subcutaneously. After a volume of the tumors reached at least 100 mm^3, the mice were grouped randomly, with three mice in each group. Then treatment was started, and the day when the treatment was started was the first day. […] The control group was administered with normal saline. Administration was performed once a week for three weeks.
as §6

[5] = test system: colo320 colorectal cancer tumor model
Description: Test objective: To investigate the antitumor efficacy of the above compounds in an animal tumor model of colo320 colorectal cancer.
as §4, §5
as §6, with “Passaging” for “SJSA-1 cells were purchased from ATCC and cultured in a DMEM medium containing 10% fetal bovine serum at 37° C. in 5% CO2. Passaging”, “used. 7.5×10^6” for “used. 2×10^7”, “least 120” for “least 100”, “for four” for “for three”

[6] = MTD determination in mice (Examples 27, 36, 44); format: in vivo; settings: mice, monitored for 14 d
Source text: Test animals: 6-8 weeks old mice, all female; mice were grouped randomly, with six mice in each group, administered with drugs at different concentration gradients separately and monitored for 14 d. A mouse was euthanized at a loss of 20% of its initial weight and deemed to have died of poisoning.

[7] = 5 mg/kg once a week for four weeks, Table 3
[8] = 5 mg/kg once a week for four weeks, Table 8
[9] = Table 13 (Example 42), dose 5 mg/kg, once a week for four weeks, BALB/c mice
[10] = Table 14 (Example 43), dose 5 mg/kg, once a week for four weeks, BALB/c mice

Row | SMILES | Mouse weight (%) ([4]; Table 2) | SJSA-1 (sarcoma tissue) mean tumor volume (mm^3) ([4]; Table 2) | SJSA-1 (sarcoma) Growth rate (%) ([4]; Table 2) | Mouse weight (%) ([4]; Table 7) | SJSA-1 (sarcoma tissue) growth rate (%) ([4]; Table 7) | SJSA-1 (sarcoma tissue) mean tumor volume (mm^3) ([4]; Table 7) | Mouse weight (%) [5, 7] | colo320 (colorectal cancer cell) growth rate (%) [5, 7] | colo320 (colorectal cancer cell) mean tumor volume (mm^3) [5, 7] | Mouse weight (%) [5, 8] | colo320 (colorectal cancer cell) growth rate (%) [5, 8] | colo320 (colorectal cancer cell) mean tumor volume (mm^3) [5, 8] | IC50 A2780 (ovarian cancer) (A2780 (ovarian cancer); Table 1) | IC50 Ovarian cancer tissue (A2780) (A2780 (ovarian cancer); Table 6) | IC50 A549 (non-small cell lung cancer) ([1]; Table 1) | IC50 Non-small cell lung cancer tissue (A549) ([1]; Table 6) | IC50 SJSA-1 (sarcoma tissue) (SJSA-1 (sarcoma tissue); Table 1) | IC50 Sarcoma tissue (SJSA-1) (SJSA-1 (sarcoma tissue); Table 6) | IC50 SKBR3 (breast cancer tissue) ([2]; Table 1) | IC50 Breast cancer tissue (SKBR3) ([2]; Table 6) | also measured
1 | CC[C@@]1(O)C(=O)OCc2c1cc1n(c2=O)Cc2c-1nc1ccccc1c2CCNC(C)C [Belotecan, reference compound] | −9% | 1253.2 mm^3 | 1084.38% | −9% | 1084.38% | 1253.2 mm^3 | −9% | 869.93% | 963.5 mm^3 | −9% | 869.93% | 963.5 mm^3 |  |  |  |  |  |  |  |  | IC50 (A2780 (ovarian cancer); Table 1, read-out: IC50 A2780 (ovarian cancer)): 0.0044 µg/mL (≈ 0.0101 µM); IC50 (A2780 (ovarian cancer); Table 6, read-out: IC50 Ovarian cancer tissue (A2780)): 0.0044 µg/mL (≈ 0.0101 µM); IC50 ([1]; Table 1, read-out: IC50 A549 (non-small cell lung cancer)): 0.0066 µg/mL (≈ 0.0152 µM); IC50 ([1]; Table 6, read-out: IC50 Non-small cell lung cancer tissue (A549)): 0.0066 µg/mL (≈ 0.0152 µM); IC50 (SJSA-1 (sarcoma tissue); Table 1, read-out: IC50 SJSA-1 (sarcoma tissue)): 0.0021 µg/mL (≈ 0.00484 µM); IC50 (SJSA-1 (sarcoma tissue); Table 6, read-out: IC50 Sarcoma tissue (SJSA-1)): 0.0021 µg/mL (≈ 0.00484 µM); IC50 ([2]; Table 1, read-out: IC50 SKBR3 (breast cancer tissue)): 0.0098 µg/mL (≈ 0.0226 µM); IC50 ([2]; Table 6, read-out: IC50 Breast cancer tissue (SKBR3)): 0.0098 µg/mL (≈ 0.0226 µM); IC50 ([3]; Homo sapiens, COLO 320): 0.014 µg/mL (≈ 0.0323 µM); Mouse weight (%) [5, 9]: −9%; colo320 (colorectal cancer cell) growth rate (%) [5, 9]: 869.93%; colo320 (colorectal cancer cell) mean tumor volume (mm^3) [5, 9]: 963.5 mm^3; Mouse weight (%) [5, 10]: −9%; colo320 (colorectal cancer cell) growth rate (%) [5, 10]: 869.93%; colo320 (colorectal cancer cell) mean tumor volume (mm^3) [5, 10]: 963.5 mm^3; MTD ([6]; female, mouse, in vivo, Table 15 (Example 44), six per group, read-out: MTD): 15 mg/kg; MTD ([6]; female, mouse, in vivo, Table 4, read-out: MTD): 15 mg/kg; MTD ([6]; female, mouse, in vivo, Table 9, read-out: MTD): 15 mg/kg
2 | CC[C@@]1(O)C(=O)OCc2c1cc1n(c2=O)Cc2c-1nc1ccccc1c2CCNC [D1] | −6% | 1432 mm^3 | 1235.57% | −6% | 1235.57% | 1432 mm^3 | −7% | 1012.22% | 1121.1 mm^3 | −7% | 1012.22% | 1121.1 mm^3 | 0.018 µg/mL (≈ 0.0444 µM) | 0.018 µg/mL (≈ 0.0444 µM) | 0.027 µg/mL (≈ 0.0666 µM) | 0.027 µg/mL (≈ 0.0666 µM) | 0.028 µg/mL (≈ 0.0691 µM) | 0.028 µg/mL (≈ 0.0691 µM) | 0.050 µg/mL (≈ 0.123 µM) | 0.050 µg/mL (≈ 0.123 µM) | IC50 Colorectal cancer tissue (colo320) [3]: 0.040 µg/mL (≈ 0.0987 µM); Mouse weight (%) [5, 9]: −7%; colo320 (colorectal cancer cell) growth rate (%) [5, 9]: 1012.22%; colo320 (colorectal cancer cell) mean tumor volume (mm^3) [5, 9]: 1121.1 mm^3; MTD ([6]; Table 4): 25 mg/kg; MTD ([6]; Table 9): 25 mg/kg
3 | CCNCCc1c2c(nc3ccccc13)-c1cc3c(c(=O)n1C2)COC(=O)[C@]3(O)CC [D2] | −8% | 1176.5 mm^3 | 1018.01% | −8% | 1018.01% | 1176.5 mm^3 | −7% | 946.13% | 1047.9 mm^3 | −7% | 946.13% | 1047.9 mm^3 | 0.018 µg/mL (≈ 0.0429 µM) | 0.018 µg/mL (≈ 0.0429 µM) | 0.030 µg/mL (≈ 0.0715 µM) | 0.030 µg/mL (≈ 0.0715 µM) | 0.023 µg/mL (≈ 0.0548 µM) | 0.023 µg/mL (≈ 0.0548 µM) | 0.036 µg/mL (≈ 0.0858 µM) | 0.036 µg/mL (≈ 0.0858 µM) | IC50 Colorectal cancer tissue (colo320) [3]: 0.051 µg/mL (≈ 0.122 µM); MTD ([6]; Table 4): 25 mg/kg; MTD ([6]; Table 9): 25 mg/kg
4 | CCCNCCc1c2c(nc3ccccc13)-c1cc3c(c(=O)n1C2)COC(=O)[C@]3(O)CC [D3] | −5% | 1378.4 mm^3 | 1192.71% | −5% | 1192.71% | 1378.4 mm^3 | +7% | 872.19% | 966 mm^3 | +7% | 872.19% | 966 mm^3 | 0.021 µg/mL (≈ 0.0484 µM) | 0.021 µg/mL (≈ 0.0484 µM) | 0.026 µg/mL (≈ 0.06 µM) | 0.026 µg/mL (≈ 0.06 µM) | 0.029 µg/mL (≈ 0.0669 µM) | 0.029 µg/mL (≈ 0.0669 µM) | 0.049 µg/mL (≈ 0.113 µM) | 0.049 µg/mL (≈ 0.113 µM) | IC50 Colorectal cancer tissue (colo320) [3]: 0.040 µg/mL (≈ 0.0923 µM); MTD ([6]; Table 4): 25 mg/kg; MTD ([6]; Table 9): 25 mg/kg
5 | CCCCNCCc1c2c(nc3ccccc13)-c1cc3c(c(=O)n1C2)COC(=O)[C@]3(O)CC [D4] | −7% | 1269.4 mm^3 | 1098.39% | −7% | 1098.39% | 1269.4 mm^3 | +5% | 945.77% | 1047.5 mm^3 | +5% | 945.77% | 1047.5 mm^3 | 0.029 µg/mL (≈ 0.0648 µM) | 0.029 µg/mL (≈ 0.0648 µM) | 0.043 µg/mL (≈ 0.0961 µM) | 0.043 µg/mL (≈ 0.0961 µM) | 0.054 µg/mL (≈ 0.121 µM) | 0.054 µg/mL (≈ 0.121 µM) | 0.076 µg/mL (≈ 0.17 µM) | 0.076 µg/mL (≈ 0.17 µM) | IC50 Colorectal cancer tissue (colo320) [3]: 0.078 µg/mL (≈ 0.174 µM); MTD ([6]; Table 4): 30 mg/kg; MTD ([6]; Table 9): 30 mg/kg
